{"source": "patent US20260021061A1", "about": "“ARIADNE AND ANALOGS FOR THE TREATMENT OF NEUROLOGICAL AND NEUROMUSCLAR DISORDERS” (priority 2022, published 2026)", "key": {"5-HT7a receptor": {"target": "5-HT7a receptor (Homo sapiens, UniProt P34969)", "sequence (P34969 1-445 isoform P34969-2)": "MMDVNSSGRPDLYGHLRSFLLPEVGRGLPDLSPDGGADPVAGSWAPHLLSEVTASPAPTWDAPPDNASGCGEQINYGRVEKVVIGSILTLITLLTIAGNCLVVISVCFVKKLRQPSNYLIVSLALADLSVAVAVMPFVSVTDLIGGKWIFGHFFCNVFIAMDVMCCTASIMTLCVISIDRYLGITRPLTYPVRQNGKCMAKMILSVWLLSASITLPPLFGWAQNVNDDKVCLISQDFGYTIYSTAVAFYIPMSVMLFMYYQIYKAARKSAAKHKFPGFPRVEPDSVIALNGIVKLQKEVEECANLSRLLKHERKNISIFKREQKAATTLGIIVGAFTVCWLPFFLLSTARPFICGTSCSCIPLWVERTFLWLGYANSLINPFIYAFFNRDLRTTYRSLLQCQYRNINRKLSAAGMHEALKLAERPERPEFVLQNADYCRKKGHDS", "assay": "5-HTome G protein activation BRET assay", "conditions": "for agonist activity: 5-HTome screen", "experimental": "(§3) All BRET assays were conducted using BRET2 in HEK293T cells (ATCC CRL-11268; mycoplasma-free), which were subcultured in high-glucose DMEM (VWR) supplemented with 10% FBS (Life Technologies).\n(§4) Constructs in G protein-dissociation BRET assays were derived from the codon-optimized Tango pcDNA3.1 library (Addgene) with V2tail/TEV/tTA encoding regions deleted to yield “de-Tango” constructs. […] All Gα-Rluc8, Beta, and GFP2-γ constructs were derived from the TRUPATH pcDNA5/FRT/TO library (Addgene).\n(§5) Approximately 48 hours before assays, cells were transfected using a reverse transfection method and plated in 1% dFBS at an approximate density of 15,000 cells per well into poly-L-lysine-coated 384-well white assay plates (Grenier Bio-One). For G protein-dissociation assays, cells were transfected in a 1:1:1:1 ratio of receptor: Gα-Rluc8: Beta: GFP2-γ constructs. […] All transfections were prepared in Opti-MEM (Invitrogen) and used a 3:1 ratio of TransIT-2020 (Mirus) uL:ug total DNA.\n(§6) On the day of the assay, plates were decanted and 20 uL of drug buffer per well (1×HBSS, 20 mM HEPES, pH 7.4) was added using a Multidrop (ThermoFisher Scientific), and plates were allowed to equilibrate at 37° C. in a humidified incubator before receiving drug stimulation. Drug dilutions of all compounds were performed in McCorvy buffer (1×HBSS, 20 mM HEPES, pH 7.4, supplemented with 0.3% BSA fatty acid free (GoldBio), and 0.03% ascorbic acid). […] Before reading, addition of coelenterazine 400a (5 uM final concentration; Nanolight Technology) was performed by the [sequence]. Immediately after, plates were read at 400 nm Rluc and fluorescent GFP2 emission at 510 nm for BRET2 at 0.8 second per well using a PheraStarFSX (BMB Lab Tech).\n(§7) The BRET ratios of 510/400 luminescence were calculated per well and were plotted as a function of drug concentration using Graphpad Prism 5 or 9 (Graphpad Software Inc., San Diego, CA). Data were normalized to % positive control stimulation and analyzed using nonlinear regression “log(agonist) vs. response” to yield Emax and EC50 parameter estimates."}, "5-HT6 receptor": {"target": "5-HT6 receptor (Homo sapiens, UniProt P50406)", "sequence (P50406 whole entry)": "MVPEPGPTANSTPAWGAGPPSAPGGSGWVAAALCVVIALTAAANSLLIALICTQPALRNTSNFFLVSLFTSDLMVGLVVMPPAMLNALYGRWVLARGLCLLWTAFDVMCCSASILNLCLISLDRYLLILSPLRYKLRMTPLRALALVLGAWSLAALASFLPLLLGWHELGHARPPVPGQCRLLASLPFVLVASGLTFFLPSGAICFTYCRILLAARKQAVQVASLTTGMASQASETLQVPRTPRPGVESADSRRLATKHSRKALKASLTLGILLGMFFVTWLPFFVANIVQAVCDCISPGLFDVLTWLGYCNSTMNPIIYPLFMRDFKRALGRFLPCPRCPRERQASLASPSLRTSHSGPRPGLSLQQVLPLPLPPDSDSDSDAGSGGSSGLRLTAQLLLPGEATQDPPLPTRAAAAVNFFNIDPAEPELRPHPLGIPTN", "assay": "5-HTome G protein activation BRET assay", "conditions": "for agonist activity: 5-HTome screen", "experimental": "as §3, §4, §5, §6, §7"}, "5-HT1E receptor": {"target": "5-HT1E receptor (Homo sapiens, UniProt P28566)", "sequence (P28566 whole entry)": "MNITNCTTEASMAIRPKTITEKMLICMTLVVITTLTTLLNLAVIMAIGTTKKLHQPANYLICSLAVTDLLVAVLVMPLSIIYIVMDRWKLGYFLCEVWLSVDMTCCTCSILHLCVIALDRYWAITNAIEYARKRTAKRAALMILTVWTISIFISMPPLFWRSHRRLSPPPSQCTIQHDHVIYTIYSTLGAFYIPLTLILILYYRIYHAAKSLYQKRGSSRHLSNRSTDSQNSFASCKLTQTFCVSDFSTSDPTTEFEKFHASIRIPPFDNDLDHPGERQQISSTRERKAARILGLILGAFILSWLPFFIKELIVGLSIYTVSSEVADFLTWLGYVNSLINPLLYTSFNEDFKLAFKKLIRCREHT", "assay": "5-HTome G protein activation BRET assay", "experimental": "as §3, §4, §5, §6, §7"}, "Adrenergic β1": {"target": "T1, Adrenergic β1 (Homo sapiens, UniProt P08588)", "T1 construct": "Eurofins-Panlabs (contract screen) 204010", "T1 sequence (P08588 whole entry)": "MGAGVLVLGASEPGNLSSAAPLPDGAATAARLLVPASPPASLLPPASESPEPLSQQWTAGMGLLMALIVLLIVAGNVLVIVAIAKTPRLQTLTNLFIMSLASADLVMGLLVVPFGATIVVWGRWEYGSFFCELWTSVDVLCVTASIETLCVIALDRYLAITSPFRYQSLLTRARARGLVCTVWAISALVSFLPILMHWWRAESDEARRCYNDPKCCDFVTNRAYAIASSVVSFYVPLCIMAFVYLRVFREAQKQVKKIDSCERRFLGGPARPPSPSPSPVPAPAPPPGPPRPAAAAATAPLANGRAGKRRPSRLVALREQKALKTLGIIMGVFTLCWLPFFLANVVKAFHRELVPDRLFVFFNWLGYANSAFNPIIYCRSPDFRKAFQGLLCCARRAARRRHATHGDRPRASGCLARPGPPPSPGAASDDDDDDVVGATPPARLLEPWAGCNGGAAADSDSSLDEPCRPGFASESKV", "assay": "SafetyScreen44 204010", "type": "binding", "conditions": "10 μM; [125I]Cyanopindolol; recombinant", "protocol": "(§1) A broad screen of 44 molecular targets (SafetyScreen44, Eurofins-Panlabs) for Ariadne were performed, which includes G protein-coupled receptors, steroid nuclear receptors, ion channels, neurotransmitter transporters, and metabolic and signaling enzymes. Only two molecular targets, 5-HT2A and 5-HT2B receptors, emerged above the positive hit threshold, defined as 50% displacement of standard radioligands by 10 uM concentration of Ariadne (FIG. 1b, and Table 1).\n(§2) For species, “H”=human, “R”=rat. Test compound screened at all targets at concentration of 10 μM."}, "5-HT2C receptor": {"target": "T2, 5-HT2C receptor (Homo sapiens, UniProt P28335)", "T2 sequence (P28335 33-458)": "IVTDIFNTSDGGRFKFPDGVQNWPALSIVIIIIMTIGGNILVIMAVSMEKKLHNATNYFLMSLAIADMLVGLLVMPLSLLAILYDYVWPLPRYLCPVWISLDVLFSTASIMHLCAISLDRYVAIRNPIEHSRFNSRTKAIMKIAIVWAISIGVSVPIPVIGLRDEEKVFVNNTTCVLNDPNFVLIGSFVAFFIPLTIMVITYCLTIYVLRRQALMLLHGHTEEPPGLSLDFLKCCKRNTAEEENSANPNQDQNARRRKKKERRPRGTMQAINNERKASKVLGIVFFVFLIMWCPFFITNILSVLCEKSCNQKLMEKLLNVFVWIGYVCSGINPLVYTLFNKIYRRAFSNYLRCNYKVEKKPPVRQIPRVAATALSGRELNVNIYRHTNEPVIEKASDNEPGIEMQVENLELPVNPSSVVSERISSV", "assay": "G protein (Gq) dissociation BRET assay", "conditions": "for Emax: read-out: Emax, agonist activity", "experimental": "as §3, §4, §5\nOn the day of the assay, plates were decanted and 20 uL of drug buffer per well (1×HBSS, 20 mM HEPES, pH 7.4) was added using a Multidrop (ThermoFisher Scientific), and plates were allowed to equilibrate at 37° C. in a humidified incubator before receiving drug stimulation. Drug dilutions of all compounds were performed in McCorvy buffer (1×HBSS, 20 mM HEPES, pH 7.4, supplemented with 0.3% BSA fatty acid free (GoldBio), and 0.03% ascorbic acid). […] Next, plates were incubated at 37° C. in a humidified incubator for 60 minutes or specified time point. Before reading, addition of coelenterazine 400a (5 uM final concentration; Nanolight Technology) was performed by the [sequence]. Immediately after, plates were read at 400 nm Rluc and fluorescent GFP2 emission at 510 nm for BRET2 at 0.8 second per well using a PheraStarFSX (BMB Lab Tech).\nas §7"}, "[1]": {"target": "T3, Serotonin (5-Hydroxytryptamine) 5-HT1B (Homo sapiens, UniProt P28222)", "T3 construct": "purchased Eurofins-Panlabs (contract screen SafetyScreen44) assay ID 271230", "T3 sequence (P28222 whole entry)": "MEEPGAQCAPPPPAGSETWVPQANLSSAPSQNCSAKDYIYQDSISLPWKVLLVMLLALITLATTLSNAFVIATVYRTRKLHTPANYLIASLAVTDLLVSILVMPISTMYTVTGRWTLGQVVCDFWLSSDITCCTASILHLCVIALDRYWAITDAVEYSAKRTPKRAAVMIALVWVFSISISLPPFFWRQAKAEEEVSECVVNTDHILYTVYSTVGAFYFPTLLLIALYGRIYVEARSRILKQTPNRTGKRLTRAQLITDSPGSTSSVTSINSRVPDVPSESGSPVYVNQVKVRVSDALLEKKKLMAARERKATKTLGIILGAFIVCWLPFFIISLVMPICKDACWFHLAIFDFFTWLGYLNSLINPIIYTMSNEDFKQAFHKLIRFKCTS", "assay": "SafetyScreen44 271230", "type": "binding", "conditions": "10 μM; [3H]GR125743; recombinant", "protocol": "as §1, §2"}, "Phosphodiesterase PDE4D2": {"target": "T4, Phosphodiesterase PDE4D2 (Homo sapiens, UniProt Q08499)", "T4 construct": "Eurofins-Panlabs (contract screen) 154420", "T4 sequence (Q08499 303-809 limits assumed)": "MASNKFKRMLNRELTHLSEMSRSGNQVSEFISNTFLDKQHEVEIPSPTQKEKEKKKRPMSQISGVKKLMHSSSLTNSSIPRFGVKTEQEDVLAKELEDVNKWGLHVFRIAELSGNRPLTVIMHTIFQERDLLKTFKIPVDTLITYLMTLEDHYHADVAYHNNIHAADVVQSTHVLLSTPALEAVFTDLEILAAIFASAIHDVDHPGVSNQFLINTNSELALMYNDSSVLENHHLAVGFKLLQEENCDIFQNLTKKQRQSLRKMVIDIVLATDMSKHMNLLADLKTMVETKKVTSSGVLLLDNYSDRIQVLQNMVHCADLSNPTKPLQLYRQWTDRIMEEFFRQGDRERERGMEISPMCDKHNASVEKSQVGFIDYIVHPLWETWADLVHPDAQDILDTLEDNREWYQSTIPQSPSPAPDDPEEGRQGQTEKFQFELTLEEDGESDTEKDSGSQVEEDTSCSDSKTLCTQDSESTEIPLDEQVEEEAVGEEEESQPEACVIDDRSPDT", "assay": "SafetyScreen44 154420", "type": "biochemical", "conditions": "10 μM; FAM-cAMP; recombinant", "protocol": "as §1, §2"}, "[2]": {"target": "T5, Potassium Channel hERG, [3H]Dofetilide (Homo sapiens, UniProt Q12809)", "T5 construct": "purchased Eurofins-Panlabs (contract screen SafetyScreen44) assay ID 265910", "T5 sequence (Q12809 whole entry)": "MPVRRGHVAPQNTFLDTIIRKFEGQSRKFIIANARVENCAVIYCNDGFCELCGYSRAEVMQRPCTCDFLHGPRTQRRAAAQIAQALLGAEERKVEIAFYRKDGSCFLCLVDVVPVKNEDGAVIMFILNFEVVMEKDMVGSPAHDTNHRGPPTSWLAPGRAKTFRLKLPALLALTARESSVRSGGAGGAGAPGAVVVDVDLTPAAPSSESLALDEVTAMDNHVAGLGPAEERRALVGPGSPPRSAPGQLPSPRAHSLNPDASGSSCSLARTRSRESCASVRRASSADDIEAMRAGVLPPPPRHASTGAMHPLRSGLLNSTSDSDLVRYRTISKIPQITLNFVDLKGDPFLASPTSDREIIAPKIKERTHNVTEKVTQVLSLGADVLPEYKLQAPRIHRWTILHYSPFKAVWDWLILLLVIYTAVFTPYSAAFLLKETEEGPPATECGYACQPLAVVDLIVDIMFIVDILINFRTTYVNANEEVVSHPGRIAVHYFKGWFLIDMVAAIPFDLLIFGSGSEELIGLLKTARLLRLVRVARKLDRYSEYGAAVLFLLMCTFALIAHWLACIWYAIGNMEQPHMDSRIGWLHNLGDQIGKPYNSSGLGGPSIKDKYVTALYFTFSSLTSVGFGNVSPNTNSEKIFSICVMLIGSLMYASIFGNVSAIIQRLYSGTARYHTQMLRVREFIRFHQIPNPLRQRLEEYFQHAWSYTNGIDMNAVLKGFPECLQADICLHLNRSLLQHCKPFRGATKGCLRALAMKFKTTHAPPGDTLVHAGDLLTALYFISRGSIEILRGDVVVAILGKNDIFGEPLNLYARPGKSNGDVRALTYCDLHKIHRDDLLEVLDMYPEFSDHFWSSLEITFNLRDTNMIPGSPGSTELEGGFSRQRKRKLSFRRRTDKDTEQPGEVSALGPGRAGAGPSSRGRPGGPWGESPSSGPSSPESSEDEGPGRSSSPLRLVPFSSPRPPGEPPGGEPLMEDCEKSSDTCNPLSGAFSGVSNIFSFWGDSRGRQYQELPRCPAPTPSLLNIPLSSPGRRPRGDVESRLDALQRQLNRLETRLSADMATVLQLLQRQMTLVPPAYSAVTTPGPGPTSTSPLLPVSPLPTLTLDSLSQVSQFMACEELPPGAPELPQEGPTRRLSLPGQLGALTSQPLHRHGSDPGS", "assay": "SafetyScreen44 265910", "type": "binding", "conditions": "10 μM, recombinant", "protocol": "as §1, §2"}, "Phosphodiesterase PDE3A": {"target": "T6, Phosphodiesterase PDE3A (Homo sapiens, UniProt Q14432)", "T6 construct": "Eurofins-Panlabs (contract screen) 152300", "assay": "SafetyScreen44 152300", "type": "biochemical", "conditions": "10 μM; FAM-cAMP; recombinant", "protocol": "as §1, §2"}, "[3]": {"target": "T7, Nicotinic Acetylcholine alpha4beta2, Cytisine (Homo sapiens, UniProt P17787+P43681)", "T7 construct": "purchased Eurofins-Panlabs (contract screen SafetyScreen44) assay ID 299031", "T7 sequence (P43681 29-627 limits assumed)": "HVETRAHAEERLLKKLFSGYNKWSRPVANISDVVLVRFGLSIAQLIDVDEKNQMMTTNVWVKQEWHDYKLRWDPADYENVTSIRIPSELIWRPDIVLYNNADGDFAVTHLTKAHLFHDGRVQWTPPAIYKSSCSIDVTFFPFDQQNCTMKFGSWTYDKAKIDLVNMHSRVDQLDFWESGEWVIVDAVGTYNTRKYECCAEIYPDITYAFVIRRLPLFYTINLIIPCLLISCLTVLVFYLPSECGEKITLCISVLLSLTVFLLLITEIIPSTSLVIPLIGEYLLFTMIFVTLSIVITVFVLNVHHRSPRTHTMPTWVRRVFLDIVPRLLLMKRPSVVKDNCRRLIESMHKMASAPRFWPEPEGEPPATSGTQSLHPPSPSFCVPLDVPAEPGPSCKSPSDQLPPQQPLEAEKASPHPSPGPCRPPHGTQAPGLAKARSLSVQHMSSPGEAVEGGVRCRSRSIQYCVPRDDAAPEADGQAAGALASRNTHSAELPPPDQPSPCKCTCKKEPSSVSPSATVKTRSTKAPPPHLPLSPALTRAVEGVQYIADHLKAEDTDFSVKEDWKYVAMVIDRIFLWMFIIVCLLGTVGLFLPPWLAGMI", "T7 sequence (P17787 26-502)": "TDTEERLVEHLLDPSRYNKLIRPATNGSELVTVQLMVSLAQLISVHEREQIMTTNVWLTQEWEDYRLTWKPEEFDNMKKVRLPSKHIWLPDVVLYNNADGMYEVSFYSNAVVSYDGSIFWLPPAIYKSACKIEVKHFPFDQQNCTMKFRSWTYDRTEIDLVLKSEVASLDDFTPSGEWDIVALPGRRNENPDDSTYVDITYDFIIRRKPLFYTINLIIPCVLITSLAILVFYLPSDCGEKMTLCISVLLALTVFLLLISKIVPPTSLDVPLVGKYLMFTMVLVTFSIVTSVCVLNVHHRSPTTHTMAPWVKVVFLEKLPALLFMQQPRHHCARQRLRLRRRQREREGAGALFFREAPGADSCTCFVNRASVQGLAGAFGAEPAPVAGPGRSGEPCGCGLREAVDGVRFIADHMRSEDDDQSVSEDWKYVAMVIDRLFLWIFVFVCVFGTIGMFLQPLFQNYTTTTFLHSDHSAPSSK", "assay": "SafetyScreen44 299031", "type": "binding", "conditions": "10 μM; [3H]Cytisine; recombinant", "protocol": "as §1, §2"}, "Potassium Channel [KA]": {"tested_on": "Potassium Channel [KA]", "assay": "SafetyScreen44 265510", "type": "binding, rat", "conditions": "10 μM; [125I]alpha-Dendrotoxin; cerebral cortex", "protocol": "as §1, §2"}, "[4]": {"tested_on": "auxilin knockout (KO) mice", "assay": "Hind limb clasping in auxilin KO mouse model of Parkinson's Disease", "type": "in vivo", "conditions": "Aux-KO mice; 10 mg/kg intraperitoneal; 15 to 30 minutes after treatment", "description": "R-Ariadne ameliorates motor abnormalities in a mouse model of Parkinson's Disease. In the 1978 patent from the Bristol Laboratories, the inventors noted complete remission of Parkinson's symptoms in two patients (Partyka el al., U.S. Pat. No. 4,105,695, 1978). To address and examine these claims via reverse translation in mice, we used a novel model of PD based on auxilin knockout (KO) mice (Vidyadhara et al., 2022). Auxilin is a clathrin uncoating protein that participates in clathrin mediated endocytosis of synaptic vesicles (SV), enabling SV recycling and neurotransmission (Vidyadhara et al., 2022). Loss-of-function mutations in auxilin (DNAJC6/PARK19) cause PD. Auxilin KO mice display cardinal features of PD such as progressive motor deficits, nigral dopaminergic neuronal loss, α-synuclein pathology, and neuroinflammation. 9-12 month old Aux-KO mice were previously shown to respond to L-DOPA treatment, which ameliorated PD-like motor abnormalities (Vidyadhara et al., 2022). […] The balance beam test evaluates fine motor skills such as ability to walk on a raised narrow beam to reach a safety box, measured as a number of runs/minute and time taken to cross the beam (FIGS. 9-10). […]"}, "mice": {"tested_on": "mice", "assay": "Novelty suppressed feeding (NSF)", "type": "in vivo, mouse", "conditions": "7 days post-drug administration; 10 mg/kg", "protocol": "FIGS. 7A-D Effect of Ariadne in behavioral conflict paradigms. (a) Survival plot of effect of (R)-Ariadne (10 mg/kg) on latency to feed in the novelty suppressed feeding (NSF) test 7 days post a single drug administration. (b) Effect of 6 mg/kg and 10 mg/kg (R)-Ariadne on latency to feed in the novelty suppressed feeding (NSF) test 7 days post a single drug administration. (c) Effect of (R)-Ariadne and (±)-DOPR on the time spent in the open vs closed arms and (d) corresponding arm entries 30 minutes and 4 hours post a single subcutaneous injection."}, "[5]": {"conditions": "EC50, agonist activity, 5-HTome screen"}}, "note": "pEC50: −log10 of the molar value."}
{"molecule": "CCC(N)Cc1cc(OC)c(C)cc1OC", "note": "(racemic) [Compound 32, 1-(2,5-dimethoxy-4-methylphenyl)butan-2-amine]", "values": [{"measurement": "pEC50", "setting": "5-HT7a receptor", "value": "< 5.00"}, {"measurement": "agonist activity", "setting": "5-HT7a receptor", "value": "Little to no agonist activity"}, {"measurement": "pEC50", "setting": "5-HT6 receptor", "value": "< 5.00"}, {"measurement": "agonist activity", "setting": "5-HT6 receptor", "value": "Little to no agonist activity"}, {"measurement": "selectivity of 5-HT2 over 5-HT1E and 5-HT1F receptors", "setting": "5-HT1E receptor; also 5-HT1F", "value": "0.5-1 log"}, {"measurement": "% Response", "setting": "Adrenergic β1", "value": 17, "unit": "%"}, {"measurement": "pEC50", "setting": "5-HT2C receptor; [5]", "value": "> 6.00"}, {"measurement": "Emax", "setting": "5-HT2C receptor", "value": "> 70", "unit": "%"}, {"measurement": "% Response", "setting": "[1]", "value": 12, "unit": "%"}, {"measurement": "% Response", "setting": "Phosphodiesterase PDE4D2", "value": "−2", "unit": "%"}, {"measurement": "% Response", "setting": "[2]", "value": 18, "unit": "%"}, {"measurement": "% Response", "setting": "Phosphodiesterase PDE3A", "value": "−4", "unit": "%"}, {"measurement": "% Response", "setting": "[3]", "value": "−31", "unit": "%"}, {"measurement": "% Response", "setting": "Potassium Channel [KA]", "value": "−6", "unit": "%"}]}
{"molecule": "CC[C@@H](N)Cc1cc(OC)c(C)cc1OC", "note": "[(R)-Ariadne]", "values": [{"measurement": "agonist activity", "setting": "5-HT7a receptor", "value": "Little to no agonist activity"}, {"measurement": "agonist activity", "setting": "5-HT6 receptor", "value": "Little to no agonist activity"}, {"measurement": "pEC50", "setting": "5-HT1E receptor", "value": "~6.70"}, {"measurement": "Emax", "setting": "5-HT1E receptor", "value": "> 70", "unit": "%"}, {"measurement": "clasping duration", "setting": "[4]", "value": "down to zero"}, {"measurement": "hindlimb clasping score", "setting": "[4]", "value": "down to zero"}, {"measurement": "pEC50", "setting": "5-HT2C receptor; EC50, Gq dissociation, Gq dissociation BRET", "value": 6.60}, {"measurement": "pEC50", "setting": "5-HT2C receptor; [5]", "value": "> 6.00"}, {"measurement": "Emax", "setting": "5-HT2C receptor", "value": "> 70", "unit": "%"}, {"measurement": "latency to bite the presented food pellets", "setting": "mice", "value": "dose-dependent trend toward reducing latency"}]}
